Measured values published in US4626525A, “Antibiotics, preparation and use of and intermediates therefor” (Bayer Aktiengesellschaft, priority 1983, dated 1986).
Starred links: 1 amine or outer side, 2 acyl side, 3 side chain; linkers in the order of their positions; H or OH if unused. Non-standard residues stand in square brackets, D forms with d. Residues, ends and D or L forms follow the SMILES beside them. ξ: configuration not given here. X1 = Cn1c(=NC(N)=O)ccn(C2SC(C(O)C(N[*:1])C(=O)[*:2])C(O)C2O)c1=O; Orn(N5-OH,N5-Ac) = CC(=O)N(O)CCC[C@H](N)C(=O)O; ξT = CC(O)C(N)C(=O)O; ξA = CC(N)C(=O)O

Key:
Assay in all cases: Hole test, inhibiting areola diameter, DST agar
Type in all cases: cell-based
[1] = tested on: E. coli T 7; parameters: unit not given here; settings: medium DST agar
From the text: (§1) Activity against the germs listed below is found in vitro, on the basis of the diameter of the inhibiting areola.

[2] = tested on: E. coli 14; parameters: unit not given here; settings: medium DST agar
From the text: as §1

[3] = tested on: Prot. 1017; settings: 1000 μg/ml, medium DST agar
From the text: as §1

[4] = tested on: Staph. 133; settings: 1000 μg/ml, medium DST agar
From the text: as §1

**Q.** How did the “Inhibiting areola diameter E. coli T 7” value ([1]; 10 μg/ml) turn out when `CC(=O)N(O)CCC[C@H](NC(=O)[C@H](CCCN(O)C(C)=O)NC(=O)[C@@H](N)CCCN(O)C(C)=O)C(=O)NC(C)C(=O)NC(C(=O)O)C(O)C1SC(n2ccc(=NC(N)=O)n(C)c2=O)C(O)C1O` (some centres unmarked) [Compound 9] (H-[Orn(N5-OH,N5-Ac)][Orn(N5-OH,N5-Ac)][Orn(N5-OH,N5-Ac)][ξA][X1]-OH) was run?
**A.** The value was 28.

**Q.** And the “Inhibiting areola diameter E. coli T 7” value ([1]; 100 μg/ml)?
**A.** The value was 34.

**Q.** What about the “Inhibiting areola diameter E. coli 14” value ([2]; 10 μg/ml) of the same compound?
**A.** The value was 30.

**Q.** What about the “Inhibiting areola diameter E. coli 14” value ([2]; 100 μg/ml) of the same compound?
**A.** The value was 34.

**Q.** With `CC(=O)N(O)CCC[C@H](N)C(=O)NC(C(=O)O)C(O)C1SC(n2ccc(=NC(N)=O)n(C)c2=O)C(O)C1O` (some centres unmarked) [Compound 11] as the compound, how does the “Inhibiting areola diameter E. coli T 7” value ([1]; 10 μg/ml) read?
**A.** The value was 13.

**Q.** What about the “Inhibiting areola diameter E. coli T 7” value ([1]; 100 μg/ml) of the same compound?
**A.** Its value is 18.

**Q.** And the “Inhibiting areola diameter E. coli 14” value ([2]; 10 μg/ml)?
**A.** The value was 18.

**Q.** What about the “Inhibiting areola diameter E. coli 14” value ([2]; 100 μg/ml) of the same compound?
**A.** The value was 13.

**Q.** For `CC(=O)N(O)CCC[C@H](NC(=O)[C@H](CCCN(O)C(C)=O)NC(=O)[C@@H](N)CCCN(O)C(C)=O)C(=O)NC(C(=O)O)C(O)C1SC(n2ccc(=NC(N)=O)n(C)c2=O)C(O)C1O` (some centres unmarked) [Compound 13], which “Inhibiting areola diameter Prot. 1017” value [3] is on record?
**A.** Its value is 20.

**Q.** And the “Inhibiting areola diameter E. coli T 7” value ([1]; 1000 μg/ml)?
**A.** Its value is 19.

**Q.** And the “Inhibiting areola diameter E. coli 14” value ([2]; 1000 μg/ml)?
**A.** Its value is 20.

**Q.** Which results are given for `CC(=O)N(O)CCC[C@H](NC(=O)[C@H](CCCN(O)C(C)=O)NC(=O)[C@@H](N)CCCN(O)C(C)=O)C(=O)NC(C(=O)NC(C(=O)O)C(O)C1SC(n2ccc(=NC(N)=O)n(C)c2=O)C(O)C1O)C(C)O` (some centres unmarked) [Compound 20] (H-[Orn(N5-OH,N5-Ac)][Orn(N5-OH,N5-Ac)][Orn(N5-OH,N5-Ac)][ξT][X1]-OH)?
**A.** Inhibiting areola diameter Prot. 1017 [3]: 17; Inhibiting areola diameter Staph. 133 [4]: 25; Inhibiting areola diameter E. coli T 7 ([1]; 100 μg/ml): 14; Inhibiting areola diameter E. coli T 7 ([1]; 1000 μg/ml): 15; Inhibiting areola diameter E. coli 14 ([2]; 100 μg/ml): 13; Inhibiting areola diameter E. coli 14 ([2]; 1000 μg/ml): 14

**Q.** With `CC(=O)N(O)CCC[C@H](NC(=O)[C@H](CCCN(O)C(C)=O)NC(=O)[C@@H](N)CCCN(O)C(C)=O)C(=O)NC(C(=O)O)C(O)C1SC(n2ccc(=O)n(C)c2=O)C(O)C1O` (some centres unmarked) [Compound 24] as the compound, how does the “Inhibiting areola diameter Prot. 1017” value [3] read?
**A.** Its value is 18.

**Q.** And the “Inhibiting areola diameter E. coli T 7” value ([1]; 100 μg/ml)?
**A.** Its value is 18.

**Q.** What about the “Inhibiting areola diameter E. coli 14” value ([2]; 1000 μg/ml) of the same compound?
**A.** The value was 18.
